Laboratory results from ChEMBL document CHEMBL1127927, “Cycloheptimidazole based angiotensin II receptor antagonists. 4,5,6,7-tetrahydro-8-carboxymethylidene cycloheptimidazoles” (Bioorg Med Chem Lett, 1994).

Molecular target: T1, Angiotensin II receptor (AT-1) type-1 (Rattus norvegicus, UniProt P29089+P25095)
T1 sequence (P29089 whole entry): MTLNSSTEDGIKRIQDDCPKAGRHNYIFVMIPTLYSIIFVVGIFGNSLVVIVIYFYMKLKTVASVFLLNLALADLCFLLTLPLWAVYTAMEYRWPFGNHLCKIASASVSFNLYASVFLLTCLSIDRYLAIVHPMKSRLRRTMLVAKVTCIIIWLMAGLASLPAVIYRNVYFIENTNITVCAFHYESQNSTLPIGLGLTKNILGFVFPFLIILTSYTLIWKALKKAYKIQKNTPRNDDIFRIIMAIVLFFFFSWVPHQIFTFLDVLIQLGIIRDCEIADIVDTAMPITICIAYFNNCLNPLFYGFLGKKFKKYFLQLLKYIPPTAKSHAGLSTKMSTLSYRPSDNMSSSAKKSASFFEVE
T1 sequence (P25095 whole entry): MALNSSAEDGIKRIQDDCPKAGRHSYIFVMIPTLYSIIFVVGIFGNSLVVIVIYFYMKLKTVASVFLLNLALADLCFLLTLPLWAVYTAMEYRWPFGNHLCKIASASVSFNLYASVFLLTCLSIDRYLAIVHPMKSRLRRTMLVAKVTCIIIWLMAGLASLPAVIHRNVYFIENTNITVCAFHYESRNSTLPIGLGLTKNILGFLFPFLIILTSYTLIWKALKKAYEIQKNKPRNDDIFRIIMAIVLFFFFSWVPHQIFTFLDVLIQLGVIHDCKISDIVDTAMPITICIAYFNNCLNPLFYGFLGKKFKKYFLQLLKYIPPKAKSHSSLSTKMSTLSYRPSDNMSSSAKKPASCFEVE
Assay: Inhibition of binding of [125I]- Sar,Ileu-angiotensin to Angiotensin II receptor, type 1 in the radioligand binding assay using rat liver membrane preparations

## CCc1nc2c(n1Cc1ccc(-c3ccccc3-c3nn[nH]n3)cc1)/C(=C/C(=O)O)CCCC2
  IC50: 5.45 nM
